Measured values reported in patent publication US8058243B2, “Method for treating a brain cancer with ifenprodil” (HSC Research and Development Limited Partnership, priority 2006, dated 2011).
Structures can show the parent of a compound that is named as a salt. Where two headings read alike, the source gives them in different places.

Tested on: murine neural precursor cells (neurosphere cultures)
Assay: HTS of LOPAC library against secondary neurosphere cultures, MTT proliferation assay at 3 μM, day 7 (z score, P value)
Type: cell-based, mouse
[1] = LOPAC library screen at 3 μM, secondary neurosphere cultures, MTT
[2] = LOPAC primary screen, neurosphere MTT proliferation, 3 μM, day 7
[3] = yes/no: significantly inhibited neurosphere proliferation (P<0.01) in primary screen
[4] = yes/no: significantly inhibited neurosphere proliferation in primary screen
[5] = primary LOPAC screen, 3 μM, MTT, neurosphere proliferation
[6] = yes/no: significantly inhibited neurosphere proliferation in the primary screen
[7] = yes = significantly inhibited neurosphere proliferation (P<0.01) in the primary screen
[8] = yes/no: significantly inhibited neurosphere proliferation (P<0.01) in the primary screen
[9] = LOPAC library screen, 3 μM, MTT, neurosphere cultures
[10] = LOPAC library screen, 3 μM, MTT, secondary neurosphere cultures, day 7

## CNC[C@H](O)c1ccc(O)c(O)c1.O=C(O)C(O)C(O)C(=O)O [(−)-Epinephrine bitartrate]
[1]
  Z Score: −0.5304
[2]
  Z score: −0.530
[3]
  Activity: no

## C=C(C)[C@@H]1CC=C(C(=O)O)CC1 [(−)-Perilic acid]
[2]
  Z score: −1.321
[4]
  Activity: no

## CNC(=O)Oc1ccc2c(c1)[C@]1(C)CCN(C)[C@@H]1N2C [(−)-Physostigmine]
  Z Score: −0.2178
[2]
  Z score: −0.218
[3]
  Activity: no

## C[N+]1(C)[C@@H]2C[C@@H](OC(=O)[C@H](CO)c3ccccc3)C[C@H]1[C@@H]1O[C@@H]12.[Br-] [(−)-Scopolamine methyl bromide]
  Z Score: −0.8468
[2]
  Z score: −0.847
[4]
  Activity: no

## Cl.c1ccc([C@H]2CN3CCSC3=N2)cc1 [(−)-Teramisole hydrochloride]
[2]
  Z score: −1.866
[3]
  Activity: no

## Cl.NC[C@@H]1O[C@H](C23CC4CC(CC(C4)C2)C3)Cc2c1ccc(O)c2O [A-77636 hydrochloride]
  Z Score: 1.44
[5]
  Z score: 1.440
[6]
  Activity: no

## CCS(=O)(=O)Nc1cccc(C(=C2CCCCC2)c2cnc[nH]2)c1 [A-315456]
  Z Score: 0.3628
[2]
  Z score: 0.363
[7]
  Activity: no

## CC1=C(C)C(=O)C(CCCCC#CCCCC#CCO)=C(C)C1=O [AA-861]
LOPAC library screen at 3 μM, MTT, secondary neurosphere cultures, screened in singlets
  Z Score: 1.517
[5]
  Z score: 1.517

## CNC(=O)[C@H]1O[C@@H](n2cnc3c(NCc4ccc(N)cc4)ncnc32)[C@H](O)[C@@H]1O [AB-MECA]
  Z Score: 0.7604
[5]
  Z score: 0.760
[6]
  Activity: no

## O=C(Cc1ccc(Cl)c(Cl)c1)OCCN1CCCC1 [AC 915 oxalate]
[1]
  Z Score: −0.8903
[2]
  Z score: −0.890
[8]
  Activity: no

## CC(C)C1C2CCC(C2)C1N.Cl (stereo not drawn) [AGN 192403 hydrochloride]
  Z Score: 0.7032
[5]
  Z score: 0.703
[6]
  Activity: no

## NC1(C(=O)O)CCc2cc(C(=O)O)ccc21 (stereo not drawn) [AIDA]
  Z Score: 0.154
[5]
  Z score: 0.154
[6]
  Activity: no

## O=C(O)CCC/C=C\C[C@@H]1[C@@H](/C=C/[C@H](O)C2Cc3ccccc3C2)[C@@H](F)C[C@@H]1O [AL-8810]
  Z Score: −1.806
[5]
  Z score: −1.806
[6]
  Activity: no

## CCN(CC)c1ncnc2c1ncn2[C@@H]1O[C@H](COP(=O)([O-])OP(=O)([O-])C(Br)(Br)P(=O)([O-])O)[C@@H](O)[C@H]1O.[Na+].[Na+].[Na+] [ARL 67156 trisodium salt]
  Z Score: −0.168
[5]
  Z score: −0.168
[6]
  Activity: no

## CC(C)(C)c1o[nH]c(=O)c1CC(N)C(=O)O (stereo not drawn) [ATPA]
  Activity: no
  Z Score: 0.2832
[5]
  Z score: 0.283

## CC(C)(C)c1onc(OCP(=O)(O)O)c1CC(N)C(=O)O (stereo not drawn) [ATPO]
  Z Score: −1.68
[5]
  Z score: −1.680
[6]
  Activity: no

## CC(N)=O [Acetamide]
168 h, 3 µM
  Z Score: −1.94
  Z score: −1.940
[4]
  Activity: no

## CC(=O)Nc1nnc(S(N)(=O)=O)s1 [Acetazolamide]
[9]
  Z Score: 1.111
[2]
  Z score: 1.111
[7]
  Activity: no

## CC(=O)c1ccc(S(=O)(=O)NC(=O)NC2CCCCC2)cc1 [Acetohexamide]
[10]
  Z Score: −2.24
[5]
  Z score: −2.240
[6]
  Activity: no

## CC(=O)SCC[N+](C)(C)C.[Cl-] [Acetyithiocholine chloride]
  Z Score: 0.004223

## CC(=O)OC(C)C[N+](C)(C)C.[Cl-] (stereo not drawn) [Acetyl-beta-methylcholine chloride]
[1]
  Z Score: −0.3382
[5]
  Z score: −0.338
[6]
  Activity: no

## CC(=O)Oc1ccccc1C(=O)O [Acetylsalicyclic acid]
[5]
  Z score: −0.481
[6]
  Activity: no

## CC(=O)Oc1ccccc1C(=O)O [Acetylsalicylic acid]
[1]
  Z Score: −0.4812

## CC(=O)SCC[N+](C)(C)C.[Cl-] [Acetylthiocholine chloride]
[5]
  Z score: 0.004
[6]
  Activity: no

## CCCCC[C@H](CC(=O)NO)C(=O)N[C@H](C(=O)N1CCC[C@H]1CO)C(C)C [Actinonin]
168 h, 3 µM
  Z Score: −3.501
  Z score: −3.501
[7]
  Activity: yes

## Nc1nc2c(ncn2COCCO)c(=O)[nH]1 [Acyclovir]
[1]
  Z Score: −1.215
[2]
  Z score: −1.215
[8]
  Activity: no

## NCCNC(=O)Cc1ccc(NC(=O)Cc2ccc(Nc3ncnc4c3ncn4[C@@H]3O[C@H](CO)[C@@H](O)[C@H]3O)cc2)cc1 [Adenosine amine congener]
[1]
  Z Score: −0.3345
[5]
  Z score: −0.334
[6]
  Activity: no

## Nc1ncnc2c1ncn2[C@@H]1O[C@H](CO)[C@@H](O)[C@H]1O [Adenosine]
[1]
  Z Score: −0.2086
[5]
  Z score: −0.209
[6]
  Activity: no

## N=C(N)NCCCCN.O=S(=O)(O)O [Agmatine sulfate]
[9]
  Z Score: 0.5881
[2]
  Z score: 0.588
[7]
  Activity: no

## CC1=C[C@@H]2c3cccc4[nH]cc(c34)C[C@H]2N(C)C1 [Agroclavine]
  Z Score: −0.9109
[5]
  Z score: −0.911
[6]
  Activity: no

## CC(N)C(=O)OC(C)(C)Cc1ccc(Cl)cc1 (stereo not drawn) [Alaproclate hydrochloride]
168 h, 3 µM
  Z Score: −0.1725
  Z score: −0.172
[6]
  Activity: no

## Oc1ncnc2[nH]ncc12 [Allopurinol]
[9]
  Z Score: 0.1473
[5]
  Z score: 0.147
[6]
  Activity: no

## O=c1nc2[nH]c3ccccc3nc-2c(=O)[nH]1 [Alloxazine]
[1]
  Z Score: −0.4424
[5]
  Z score: −0.442
[6]
  Activity: no

## C=CCc1ccccc1OCC(O)CNC(C)C (stereo not drawn) [Alprenolol hydrochloride]
[10]
  Z Score: −2.143
[5]
  Z score: −2.143
[6]
  Activity: no

## CN(C)c1nc(N(C)C)nc(N(C)C)n1 [Altretamine]
[10]
  Z Score: −1.322
[5]
  Z score: −1.322
[6]
  Activity: no

## NC12CC3CC(CC(C3)C1)C2 [Amantadine hydrochloride]
[1]
  Z Score: −0.6531
[5]
  Z score: −0.653
[6]
  Activity: no

## CCn1cc(C(=O)O)c(=O)c2ccc(Cc3ccccc3)nc21 [Amfonelic acid]
[9]
  Z Score: 0.488
LOPAC screen, neurosphere MTT proliferation, 3 μM, day 7
  Z score: 0.488
[3]
  Activity: no

## NCCCNCCSP(=O)(O)O [Amifostine]
168 h, 3 µM
  Z Score: 0.3592
  Z score: 0.359
[7]
  Activity: no

## N=C(N)NC(=O)c1nc(Cl)c(N)nc1N [Amiloride hydrochloride]
[1]
  Z Score: −0.7992
[2]
  Z score: −0.799
[8]
  Activity: no

## CN1[C@@H]2CC[C@H]1C[C@@H](OC(c1ccccc1)c1ccccc1N)C2 (stereo partly drawn) [Aminobenztropine]
[10]
  Z Score: −1.455
[2]
  Z score: −1.455
[8]
  Activity: no

## NN=C(N)N.NN=C(N)N.O=S(=O)(O)O [Aminoguanidine hemisulfate]
  Activity: no
  Z Score: −1.219
  Z score: −1.219

## N=C(N)NN [Aminoguanidine hydrochloride]
[9]
  Z Score: −0.000731
[5]
  Z score: −0.001
[6]
  Activity: no

## Cn1c(=O)c2[nH]cnc2n(C)c1=O.Cn1c(=O)c2[nH]cnc2n(C)c1=O.NCCN [Aminophylline ethylenediamine]
  Activity: no
[10]
  Z Score: −1.537
[5]
  Z score: −1.537

## CCCCc1oc2ccccc2c1C(=O)c1cc(I)c(OCCN(CC)CC)c(I)c1 [Amiodarone hydrochloride]
[9]
  Z Score: 0.9292
[5]
  Z score: 0.929
[6]
  Activity: no

## CN(C)CCCO[C@@H]1[C@H]2OC(C)(C)O[C@H]2O[C@@H]1[C@H](O)CO [Amiprilose hydrochloride]
168 h, 3 µM
  Z Score: −0.7783
  Z score: −0.778
[6]
  Activity: no

## CN(C)CCC=C1c2ccccc2CCc2ccccc21 [Amitriptyline hydrochloride]
168 h, 3 µM
  Z Score: 0.7066
  Z score: 0.707
[8]
  Activity: no

## N.S=C(S)N1CCCC1 [Ammonium pyrrolidinedithiocarbamate]
  Activity: no
[1]
  Z Score: −0.4168
[2]
  Z score: −0.417

## Clc1ccc2c(c1)C(N1CCNCC1)=Nc1ccccc1O2 [Amoxapine]
168 h, 3 µM
  Z Score: −1.041
  Z score: −1.041
[6]
  Activity: no

## CCNC(=O)N1CCN(CCCC(c2ccc(F)cc2)c2ccc(F)cc2)CC1 [Amperozide hydrochloride]
168 h, 3 µM
  Z Score: −0.4126
  Z score: −0.413
[7]
  Activity: no

## COc1cc(NS(C)(=O)=O)ccc1Nc1c2ccccc2nc2ccccc12 [Amsacrine hydrochloride]
[10]
  Z Score: −11.27
[2]
  Z score: −11.274
[7]
  Activity: yes

## N=c1ccn2c(n1)O[C@H]1[C@H](O)[C@@H](CO)O[C@H]12 [Ancitabine hydrochloride]
[10]
  Z Score: −9.951
[2]
  Z score: −9.951
[7]
  Activity: yes

## C[C@]12CC[C@@H](O)C[C@@H]1CC[C@@H]1[C@@H]2CC[C@]2(C)C(=O)CC[C@@H]12 [Androsterone]
  Activity: no
  Z Score: 1.947
  Z score: 1.947

## COc1ccc(C(=O)N2CCCC2=O)cc1 [Aniracetam]
[10]
  Z Score: −1.355
[5]
  Z score: −1.355
[6]
  Activity: no

## Cl.c1ccc(CN(CC2=NCCN2)c2ccccc2)cc1 [Antozoline hydrochloride]
  Z Score: 0.4854
[5]
  Z score: 0.485
[6]
  Activity: no

## O=c1cc(-c2ccc(O)cc2)oc2cc(O)cc(O)c12 [Apigenin]
168 h, 3 µM
  Z Score: 1.824
  Z score: 1.824
[6]
  Activity: no

## NC(N)=NCCCCN=C(N)N [Arcaine sulfate]
[1]
  Z Score: −0.3299
[2]
  Z score: −0.330
[4]
  Activity: no
